Structures can show the parent of a compound that is named as a salt. Where two headings read alike, the source gives them in different places.

In assay [1] the target is N-terminal GST tagged recombinant human RET cytoplasmic domain (aa 658-end), wild type RET kinase (Homo sapiens (Human), UniProt P07949). Put plainly: RET Enzyme Assay (HTRF KinEASE-TK), wild type RET. In kind it is biochemical. The following applies: wild type RET, 1 mM ATP.
For assay [2], the target named is Kif5b-RET fusion protein in HEK-293 cells (Homo sapiens, UniProt P07949). Put plainly: cell-based. The following applies: read-out: KIF5B-RET pTYR1062 Cell IC50.
In assay [3] the target is human KDR protein in HEK-293 cells (Homo sapiens (Human), UniProt P35968). Put plainly: KDR Cell Assay (phospho-KDR in HEK-293 cells expressing inducible KDR). In kind it is cell-based. The following applies: pKDR Cell HEK 10% FBS IC50, HEK-293 cells expressing inducible KDR, VEGF stimulated. A digest of the protocol:
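HEK-293 cells with inducible human KDR were treated with compound for 1 h in DMEM (0.25% DMSO final), then lysed. Phospho-KDR was quantified by Meso Scale immunoassay, expressed as percent of control, and IC50 taken where a 4-parameter logistic fit crossed 50 POC.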

The mark [4] stands for this setting: HEK-293 cells expressing Kif5b-RET, phospho-RET(Tyr1062).
Setting [5] is: HEK-293 cells expressing Kif5b-RET.

Sequence of human KDR protein in HEK-293 cells (P35968 20-1356): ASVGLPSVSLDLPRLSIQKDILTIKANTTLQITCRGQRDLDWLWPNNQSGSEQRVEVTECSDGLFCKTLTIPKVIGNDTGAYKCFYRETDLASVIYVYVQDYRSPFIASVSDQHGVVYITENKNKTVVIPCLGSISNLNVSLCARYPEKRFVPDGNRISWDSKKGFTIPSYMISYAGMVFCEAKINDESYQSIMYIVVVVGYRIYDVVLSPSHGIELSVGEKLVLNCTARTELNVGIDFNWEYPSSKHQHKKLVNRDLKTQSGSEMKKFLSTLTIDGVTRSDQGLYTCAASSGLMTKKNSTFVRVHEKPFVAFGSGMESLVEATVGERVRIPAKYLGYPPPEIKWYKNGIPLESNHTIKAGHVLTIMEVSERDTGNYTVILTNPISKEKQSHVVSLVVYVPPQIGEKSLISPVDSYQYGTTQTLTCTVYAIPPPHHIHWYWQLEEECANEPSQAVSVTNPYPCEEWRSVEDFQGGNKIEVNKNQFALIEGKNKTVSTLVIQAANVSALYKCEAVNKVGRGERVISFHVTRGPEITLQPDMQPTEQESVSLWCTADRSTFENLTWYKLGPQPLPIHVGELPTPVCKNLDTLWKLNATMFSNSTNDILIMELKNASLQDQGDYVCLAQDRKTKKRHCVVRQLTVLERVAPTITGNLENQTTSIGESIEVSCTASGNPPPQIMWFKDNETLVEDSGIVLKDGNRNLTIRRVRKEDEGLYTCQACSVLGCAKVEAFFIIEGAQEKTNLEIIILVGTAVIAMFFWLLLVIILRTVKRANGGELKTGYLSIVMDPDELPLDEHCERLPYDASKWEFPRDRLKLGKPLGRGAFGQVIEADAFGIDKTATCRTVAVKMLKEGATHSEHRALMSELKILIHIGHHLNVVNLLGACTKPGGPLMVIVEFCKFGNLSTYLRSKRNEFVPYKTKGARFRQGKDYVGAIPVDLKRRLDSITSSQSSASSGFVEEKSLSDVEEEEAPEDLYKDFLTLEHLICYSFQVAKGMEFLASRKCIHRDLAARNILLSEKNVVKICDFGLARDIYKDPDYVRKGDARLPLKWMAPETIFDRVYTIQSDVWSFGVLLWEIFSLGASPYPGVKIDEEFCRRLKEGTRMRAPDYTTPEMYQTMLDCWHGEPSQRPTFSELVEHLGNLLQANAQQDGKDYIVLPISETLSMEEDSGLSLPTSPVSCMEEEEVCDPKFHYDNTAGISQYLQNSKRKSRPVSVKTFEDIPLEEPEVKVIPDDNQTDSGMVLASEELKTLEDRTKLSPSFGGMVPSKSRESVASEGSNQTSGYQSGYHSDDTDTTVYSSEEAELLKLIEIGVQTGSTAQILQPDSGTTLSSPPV
Sequence of Kif5b-RET fusion protein in HEK-293 cells (P07949 29-1114 limits assumed): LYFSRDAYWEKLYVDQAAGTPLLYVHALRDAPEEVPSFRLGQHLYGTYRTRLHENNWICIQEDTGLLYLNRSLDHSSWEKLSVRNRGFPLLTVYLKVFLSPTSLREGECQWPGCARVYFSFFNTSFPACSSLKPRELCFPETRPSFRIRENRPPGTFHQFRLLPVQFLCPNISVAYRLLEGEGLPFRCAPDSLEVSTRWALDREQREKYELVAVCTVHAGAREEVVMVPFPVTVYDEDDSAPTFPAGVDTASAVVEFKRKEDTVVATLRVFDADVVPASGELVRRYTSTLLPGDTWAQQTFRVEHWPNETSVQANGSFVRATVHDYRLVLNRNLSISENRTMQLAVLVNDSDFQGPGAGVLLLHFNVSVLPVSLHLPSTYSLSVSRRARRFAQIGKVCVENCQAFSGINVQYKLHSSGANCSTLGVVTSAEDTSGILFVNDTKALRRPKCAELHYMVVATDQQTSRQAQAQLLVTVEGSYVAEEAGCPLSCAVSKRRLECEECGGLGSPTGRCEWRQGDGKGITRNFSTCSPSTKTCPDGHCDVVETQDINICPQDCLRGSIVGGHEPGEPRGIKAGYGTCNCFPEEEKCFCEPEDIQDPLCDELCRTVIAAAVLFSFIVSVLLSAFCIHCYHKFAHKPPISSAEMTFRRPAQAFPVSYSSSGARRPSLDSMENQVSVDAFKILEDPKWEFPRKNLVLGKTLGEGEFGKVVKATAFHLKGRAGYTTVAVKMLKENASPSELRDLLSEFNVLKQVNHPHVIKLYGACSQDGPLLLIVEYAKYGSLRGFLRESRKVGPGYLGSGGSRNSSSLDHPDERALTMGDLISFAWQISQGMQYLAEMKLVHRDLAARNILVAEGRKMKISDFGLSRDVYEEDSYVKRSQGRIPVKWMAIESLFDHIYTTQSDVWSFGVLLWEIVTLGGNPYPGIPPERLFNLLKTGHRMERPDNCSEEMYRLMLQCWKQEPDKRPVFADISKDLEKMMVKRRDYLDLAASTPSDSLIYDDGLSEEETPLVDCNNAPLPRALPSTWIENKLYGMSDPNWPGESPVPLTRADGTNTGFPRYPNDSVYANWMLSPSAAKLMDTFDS
Sequence of N-terminal GST tagged recombinant human RET cytoplasmic domain (aa 658-end), wild type RET kinase (P07949 658-1114): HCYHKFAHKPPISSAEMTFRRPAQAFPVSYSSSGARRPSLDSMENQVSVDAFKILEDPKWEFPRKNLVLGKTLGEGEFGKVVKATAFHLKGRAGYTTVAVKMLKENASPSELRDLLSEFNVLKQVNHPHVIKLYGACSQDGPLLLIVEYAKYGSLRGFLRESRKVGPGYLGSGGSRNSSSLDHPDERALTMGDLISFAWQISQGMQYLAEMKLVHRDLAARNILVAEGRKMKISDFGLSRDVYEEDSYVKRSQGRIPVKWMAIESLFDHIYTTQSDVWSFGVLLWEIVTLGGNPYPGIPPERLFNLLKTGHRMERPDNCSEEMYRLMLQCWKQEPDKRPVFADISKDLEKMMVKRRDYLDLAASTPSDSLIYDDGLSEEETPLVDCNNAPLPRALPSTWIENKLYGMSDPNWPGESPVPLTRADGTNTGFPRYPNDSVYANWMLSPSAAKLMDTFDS

Consider `CC(C)NC(=O)C1(C)CCN(c2ccc(-c3cc(-c4cnn(C)c4)cn4ncc(C#N)c34)cn2)CC1` [Example 251, 1-(5-(3-cyano-6-(1-methyl-1H-pyrazol-4-yl)pyrazolo[1,5-a]pyridin-4-yl)pyridin-2-yl)-N-isopropyl-4-methylpiperidine-4-carboxamide], for which the IC50 in assay [1] is 7.8 nM; in assay [2] (setting [4]), 5.6 nM; in assay [3] (10% FBS), 495 nM.

For the compound `COCC(C)NC(=O)C1(C)CCN(c2ccc(-c3cc(-c4cnn(C)c4)cn4ncc(C#N)c34)cn2)CC1` (stereo not drawn) [Example 252, 1-(5-(3-cyano-6-(1-methyl-1H-pyrazol-4-yl)pyrazolo[1,5-a]pyridin-4-yl)pyridin-2-yl)-N-(1-methoxypropan-2-yl)-4-methylpiperidine-4-carboxamide], the concentration for half-maximal inhibition (IC50) in assay [1] was found to be 11.6 nM; in assay [2] (setting [4]), 4.8 nM; in assay [3] (10% FBS) it was 656 nM.

In the case of `C[C@@H](NC(=O)C1(C)CCN(c2ccc(-c3cc(-c4cnn(C)c4)cn4ncc(C#N)c34)cn2)CC1)C(F)(F)F` [Example 253, (R)-1-(5-(3-cyano-6-(1-methyl-1H-pyrazol-4-yl)pyrazolo[1,5-a]pyridin-4-yl)pyridin-2-yl)-4-methyl-N-(1,1,1-trifluoropropan-2-yl)piperidine-4-carboxamide], the IC50 in assay [1] was found to be 16.1 nM; in assay [2] (setting [4]), 8.4 nM; in assay [3] (10% FBS), 596 nM.

On to `COC(=O)C1(C)CCN(c2ccc(-c3cc(-c4cnn(C)c4)cn4ncc(C#N)c34)cn2)CC1` [Example 254, Methyl 1-(5-(3-cyano-6-(1-methyl-1H-pyrazol-4-yl)pyrazolo[1,5-a]pyridin-4-yl)pyridin-2-yl)-4-methylpiperidine-4-carboxylate], for which the IC50 in assay [1] was found to be 9.2 nM; in assay [2] (setting [4]), 12.3 nM; in assay [3] (10% FBS), 446 nM.

On to `CCC1(C(=O)NCCC(F)(F)F)CCN(c2ccc(-c3cc(-c4cnn(C)c4)cn4ncc(C#N)c34)cn2)CC1` [Example 255, 1-(5-(3-cyano-6-(1-methyl-1H-pyrazol-4-yl)pyrazolo[1,5-a]pyridin-4-yl)pyridin-2-yl)-4-ethyl-N-(3,3,3-trifluoropropyl)piperidine-4-carboxamide], for which the values for the half-maximal inhibitory concentration (IC50) in assay [1], in assay [2] (setting [4]) and in assay [3] (10% FBS) were 9.1 nM, 7.3 nM and 1090 nM, respectively.

Regarding `CCC1(C(=O)NC(C)C)CCN(c2ccc(-c3cc(-c4cnn(C)c4)cn4ncc(C#N)c34)cn2)CC1` [Example 256, 1-(5-(3-cyano-6-(1-methyl-1H-pyrazol-4-yl)pyrazolo[1,5-a]pyridin-4-yl)pyridin-2-yl)-4-ethyl-N-isopropylpiperidine-4-carboxamide], the IC50 turned out to be 12.9 nM in assay [1], 4.5 nM in assay [2] (setting [4]) and 735 nM in assay [3] (10% FBS).

On to `CCC1(C(=O)N[C@H](C)C(F)(F)F)CCN(c2ccc(-c3cc(-c4cnn(C)c4)cn4ncc(C#N)c34)cn2)CC1` [Example 257, (R)-1-(5-(3-cyano-6-(1-methyl-1H-pyrazol-4-yl)pyrazolo[1,5-a]pyridin-4-yl)pyridin-2-yl)-4-ethyl-N-(1,1,1-trifluoropropan-2-yl)piperidine-4-carboxamide], for which the half-maximal inhibitory concentration (IC50) was determined as 14.9 nM in assay [1], 9.3 nM in assay [2] (setting [4]) and 1350 nM in assay [3] (10% FBS).

`CCC1(C(=O)NCC(C)(C)O)CCN(c2ccc(-c3cc(-c4cnn(C)c4)cn4ncc(C#N)c34)cn2)CC1` [Example 258, 1-(5-(3-cyano-6-(1-methyl-1H-pyrazol-4-yl)pyrazolo[1,5-a]pyridin-4-yl)pyridin-2-yl)-4-ethyl-N-(2-hydroxy-2-methylpropyl) piperidine-4-carboxamide]: the concentration for half-maximal inhibition (IC50) in assay [1] is 12.5 nM; in assay [2] (setting [4]), 10 nM; in assay [3] (10% FBS), 505 nM.

Take `CC(C)CC(=O)N1CCN(c2ccc(-c3cc(-c4cnn(C(F)F)c4)cn4ncc(C#N)c34)cn2)CC1` [Example 267, 6-(1-(difluoromethyl)-1H-pyrazol-4-yl)-4-(6-(4-(3-methylbutanoyl)piperazin-1-yl)pyridin-3-yl)pyrazolo[1,5-a]pyridine-3-carbonitrile]: the half-maximal inhibitory concentration (IC50) was found to be 11 nM in assay [1], 13.6 nM in assay [2] (setting [4]) and 2760 nM in assay [3] (10% FBS).

Turning to `Cn1cc(-c2cc(-c3ccc(N4CCNCC4)nc3)c3c(Cl)cnn3c2)cn1` [Example 326, 3-chloro-6-(1-methyl-1H-pyrazol-4-yl)-4-(6-(piperazin-1-yl)pyridine-3-yl)pyrazolo[1,5-a]pyridine dihydrochloride], the values for the IC50 in assay [1], in assay [2] and in assay [3] (10% FBS) were 75 nM, 70.4 nM and 579 nM, respectively.

For the compound `CN(C)CC(=O)N1CCN(c2ccc(-c3cc(-c4cnn(C)c4)cn4ncc(Cl)c34)cn2)CC1` [Example 328, 1-(4-(5-(3-chloro-6-(1-methyl-1H-pyrazol-4-yl)pyrazolo[1,5-a]pyridin-4-yl)pyridin-2-yl)piperazin-1-yl)-2-(dimethylamino)ethanone], the IC50 turned out to be 62.1 nM in assay [1], 60.4 nM in assay [2] (setting [4]) and 1370 nM in assay [3] (10% FBS).

With `COCC(=O)N1CCN(c2ccc(-c3cc(-c4cnn(C)c4)cn4ncc(Cl)c34)cn2)CC1` [Example 329, 1-(4-(5-(3-chloro-6-(1-methyl-1H-pyrazol-4-yl)pyrazolo[1,5-a]pyridin-4-yl)pyridin-2-yl)piperazin-1-yl)-2-methoxyethanone], the IC50 came to 23.2 nM in assay [1], 45.6 nM in assay [2] (setting [4]) and 381 nM in assay [3] (10% FBS).

On to `CC(=O)N1CCN(c2ccc(-c3cc(-c4cnn(C)c4)cn4ncc(Cl)c34)cn2)CC1` [Example 330, 1-(4-(5-(3-chloro-6-(1-methyl-1H-pyrazol-4-yl)pyrazolo[1,5-a]pyridin-4-yl)pyridin-2-yl)piperazin-1-yl)ethanone], for which the results for the IC50 in assay [1], in assay [2] (setting [4]) and in assay [3] (10% FBS) were 38.3 nM, 84 nM and 566 nM, respectively.

In the case of `Cn1cc(-c2cc(-c3ccc(N4CCN(C(=O)CC(C)(C)C)CC4)nc3)c3c(Cl)cnn3c2)cn1` [Example 331, 1-(4-(5-(3-chloro-6-(1-methyl-1H-pyrazol-4-yl)pyrazolo[1,5-a]pyridin-4-yl)pyridin-2-yl)piperazin-1-yl)-3,3-dimethylbutan-1-one], the IC50 in assay [1] came to 31.1 nM; in assay [2] (setting [4]) it was 148 nM; in assay [3] (10% FBS) it was 2350 nM.

Turning to `Cn1cc(-c2cc(-c3ccc(N4CCN(S(C)(=O)=O)CC4)nc3)c3c(Cl)cnn3c2)cn1` [Example 332, 3-chloro-6-(1-methyl-1H-pyrazol-4-yl)-4-(6-(4-(methylsulfonyl)piperazin-1-yl)pyridin-3-yl)pyrazolo[1,5-a]pyridine], the half-inhibitory concentration (IC50) came out at 16.2 nM in assay [1], 47 nM in assay [2] (setting [4]) and 207 nM in assay [3] (10% FBS).

Take `CN1CCN(c2ccc(-c3cc(-c4cnn(C)c4)cn4ncc(Cl)c34)cn2)CC1` [Example 333, 3-chloro-6-(1-methyl-1H-pyrazol-4-yl)-4-(6-(4-methylpiperazin-1-yl)pyridin-3-yl)pyrazolo[1,5-a]pyridine]: the 50% inhibitory concentration (IC50) in assay [1] worked out at 63.7 nM; in assay [2] (setting [4]) it was 156 nM; in assay [3] (10% FBS), 2390 nM.

Consider `COCC(C)(C)C(=O)N1CCN(c2ccc(-c3cc(-c4cnn(C)c4)cn4ncc(C#N)c34)cn2)CC1` [Example 352, 4-(6-(4-(3-methoxy-2,2-dimethylpropanoyl)piperazin-1-yl)pyridin-3-yl)-6-(1-methyl-1H-pyrazol-4-yl)pyrazolo[1,5-a]pyridine-3-carbonitrile], for which the half-inhibitory concentration (IC50) in assay [1] amounted to 13.9 nM; in assay [2] (setting [4]), 13.7 nM; in assay [3] (10% FBS), 2200 nM.

As to `COCCN(CCOC)C(=O)N1CCN(c2ccc(-c3cc(-c4cnn(C)c4)cn4ncc(C#N)c34)cn2)CC1` [Example 385, 4-(5-(3-cyano-6-(1-methyl-1H-pyrazol-4-yl)pyrazolo[1,5-a]pyridin-4-yl)pyridine-2-yl)-N,N-bis(2-methoxyethyl)piperazine-1-carboxamide], the IC50 in assay [1] amounted to 27.1 nM; in assay [2] (setting [5]), 47.3 nM; in assay [3], 1970 nM.

As for `CC(C)OCCN1CCN(c2ccc(-c3cc(-c4cnn(C)c4)cn4ncc(C#N)c34)cn2)CC1` [Example 392, 4-(6-(4-(2-isopropoxyethyl)piperazin-1-yl)pyridin-3-yl)-6-(1-methyl-1H-pyrazol-4-yl)pyrazolo[1,5-a]pyridin-3-carbonitrile], the IC50 in assay [1] is 8.5 nM; in assay [2] (setting [5]) it was 3.6 nM; in assay [3], 765 nM.

Regarding `Cn1cc(-c2cc(-c3ccc(N4CCN(CCOC(F)(F)F)CC4)nc3)c3c(C#N)cnn3c2)cn1` [Example 398, 6-(1-methyl-1H-pyrazol-4-yl)-4-(6-(4-(2-(trifluoromethoxy)ethyl)piperazin-1-yl)pyridin-3-yl)pyrazolo[1,5-a]pyridine-3-carbonitrile], the results for the 50% inhibitory concentration (IC50) in assay [1], in assay [2] (setting [5]) and in assay [3] were 11.1 nM, 18.6 nM and 1300 nM, respectively.

Consider `CO[C@H](C)CN1CCN(c2ccc(-c3cc(-c4cnn(C)c4)cn4ncc(C#N)c34)cn2)CC1` [Example 412, (R)-4-(6-(4-(2-methoxypropyl)piperazin-1-yl)pyridin-3-yl)-6-(1-methyl-1H-pyrazol-4-yl)pyrazolo[1,5-a]pyridine-3-carbonitrile], for which the IC50 in assay [1] was found to be 21.6 nM; in assay [2] (setting [5]), 18.2 nM; in assay [3], 2130 nM.

In the case of `COC(CN1CCN(c2ccc(-c3cc(-c4cnn(C)c4)cn4ncc(C#N)c34)cn2)CC1)C(C)C` (stereo not drawn) [Example 413, 4-(6-(4-(2-methoxy-3-methylbutyl)piperazin-1-yl)pyridin-3-yl)-6-(1-methyl-1H-pyrazol-4-yl)pyrazolo[1,5-a]pyridine-3-carbonitrile], the IC50 in assay [1] came to 15.6 nM; in assay [2] (setting [5]) it was 29.1 nM; in assay [3], 549 nM.
